The values below come from US20090111801A1, “SUBSTITUTED PYRAZINONE DERIVATIVES FOR USE AS A MEDICINE” (Janssen Pharmaceutica N.V., priority 2006, published 2009).

SMILES strings stand for the structures.

One data set concerns the target T1, 5HT-Transporter (Homo sapiens, UniProt P31645).
T1 construct: Human platelet membranes (Oceanix Biosciences Corporation, Hanover, Md., USA) were thawed; tissue Oceanix Biosciences Corporation, Hanover, Md., USA; host or cells: human platelet membranes
The data set is described as follows: Binding experiment for the 5HT-transporter ([3H]paroxetine, human platelet membranes). As to conditions: [3H]paroxetine 0.5 nM, read-out: h-5HTT pIC50 (converted). In a few lines:
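Competition binding of [3H]paroxetine to human platelet membranes in Tris-HCl 50 mM, 120 mM NaCl, 5 mM KCl, with filtration and scintillation counting.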

A further data set has as its target T2, hα2C receptor (Homo sapiens, UniProt P18825).
T2 construct: expressed in transfected cells; host or cells: CHO cells, stably transfected; membrane preparation
T2 sequence (P18825 1-462): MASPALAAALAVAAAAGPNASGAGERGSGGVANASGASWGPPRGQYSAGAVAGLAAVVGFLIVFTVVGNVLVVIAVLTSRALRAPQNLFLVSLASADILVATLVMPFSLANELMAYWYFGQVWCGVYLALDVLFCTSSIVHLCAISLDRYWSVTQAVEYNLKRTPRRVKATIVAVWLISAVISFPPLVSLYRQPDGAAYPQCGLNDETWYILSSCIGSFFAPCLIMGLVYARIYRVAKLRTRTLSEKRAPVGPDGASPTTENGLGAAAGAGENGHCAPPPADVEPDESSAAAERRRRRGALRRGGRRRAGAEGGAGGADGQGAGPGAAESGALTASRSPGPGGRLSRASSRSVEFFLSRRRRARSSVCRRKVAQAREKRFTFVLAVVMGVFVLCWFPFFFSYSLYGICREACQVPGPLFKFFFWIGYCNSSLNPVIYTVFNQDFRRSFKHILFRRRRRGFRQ
As to the kind of experiment: Radioligand binding experiment for α2C-adrenoceptor ([3H]raulwolscine, CHO cell membranes). The conditions noted are these: [3H]raulwolscine binding, read-out: h-α2C pIC50 (converted).

The next data set has as its target T3, hα2A receptor (Homo sapiens, UniProt P08913).
T3 construct: expressed in transfected cells; host or cells: CHO cells, stably transfected; membrane preparation
T3 sequence (P08913 1-465): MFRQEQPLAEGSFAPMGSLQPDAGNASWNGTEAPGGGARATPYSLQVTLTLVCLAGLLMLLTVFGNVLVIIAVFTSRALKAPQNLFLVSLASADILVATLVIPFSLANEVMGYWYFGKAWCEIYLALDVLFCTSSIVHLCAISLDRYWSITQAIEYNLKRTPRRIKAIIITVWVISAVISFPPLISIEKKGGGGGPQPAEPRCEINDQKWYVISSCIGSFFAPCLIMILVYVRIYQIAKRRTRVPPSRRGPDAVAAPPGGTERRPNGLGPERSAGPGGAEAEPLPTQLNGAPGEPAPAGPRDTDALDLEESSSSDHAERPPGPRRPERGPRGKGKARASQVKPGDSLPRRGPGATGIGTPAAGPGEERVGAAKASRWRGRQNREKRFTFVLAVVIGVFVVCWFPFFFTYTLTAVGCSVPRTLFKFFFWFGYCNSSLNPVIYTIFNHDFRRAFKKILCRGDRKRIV
As to the kind of experiment: Radioligand binding experiment for α2A-adrenoceptor ([3H]raulwolscine, CHO cell membranes). The conditions noted are these: [3H]raulwolscine binding, read-out: h-α2A pIC50 (converted).

T1 sequence (P31645 whole entry): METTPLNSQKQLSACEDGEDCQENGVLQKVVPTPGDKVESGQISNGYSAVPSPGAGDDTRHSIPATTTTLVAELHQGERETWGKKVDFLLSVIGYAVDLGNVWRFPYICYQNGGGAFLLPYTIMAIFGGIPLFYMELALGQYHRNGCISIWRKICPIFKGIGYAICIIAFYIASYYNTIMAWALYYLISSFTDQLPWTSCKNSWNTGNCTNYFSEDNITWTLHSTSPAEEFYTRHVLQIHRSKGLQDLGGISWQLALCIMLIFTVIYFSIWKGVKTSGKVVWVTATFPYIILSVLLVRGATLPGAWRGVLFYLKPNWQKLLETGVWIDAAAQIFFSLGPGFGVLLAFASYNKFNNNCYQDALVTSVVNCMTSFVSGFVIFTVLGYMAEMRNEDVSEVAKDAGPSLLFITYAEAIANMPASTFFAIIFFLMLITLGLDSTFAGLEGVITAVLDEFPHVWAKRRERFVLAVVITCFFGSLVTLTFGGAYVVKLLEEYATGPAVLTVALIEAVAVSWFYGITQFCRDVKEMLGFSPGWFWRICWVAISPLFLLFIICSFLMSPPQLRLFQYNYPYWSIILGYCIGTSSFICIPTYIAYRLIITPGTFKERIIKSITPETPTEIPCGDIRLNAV

Take `C/C(=C\c1ccccc1)CN1CCC(Nc2nccn(Cc3ccc([N+](=O)[O-])cc3)c2=O)CC1` [5-25]: the melting point was 123 °C. Further, the IC50 at 5HT-Transporter was 631 nM. Besides, the IC50 at hα2C receptor is 31.6 nM. Moreover, on hα2A receptor, the IC50 was 126 nM.
For `C/C(=C\c1ccccc1)CN1CCC(Nc2nccn(Cc3cc(C)on3)c2=O)CC1` [6-3], the melting point came out at 107 °C. At 5HT-Transporter, the IC50 was 2000 nM. The IC50 on hα2C receptor is 31.6 nM. In addition, on hα2A receptor, the IC50 is 63.1 nM.
For the compound `C/C(=C\c1ccccc1)CN1CCC(Nc2nccn(-c3ccsc3)c2=O)CC1` [6-4], the melting point came to 210 °C. Further, the IC50 on 5HT-Transporter was 1000 nM. In addition, the IC50 on hα2C receptor was 6.31 nM. Besides, the IC50 on hα2A receptor was 39.8 nM.
Take `C=CCn1ccnc(NC2CCN(C/C(C)=C/c3ccccc3)CC2)c1=O` [7-11]: the melting point was found to be 126 °C. Also, on 5HT-Transporter, the IC50 was 2000 nM. Besides, the IC50 on hα2C receptor was 12.6 nM. In addition, on hα2A receptor, the IC50 is 31.6 nM.
